Measurements reported in US11891455B2, “Polymorph form of (r)-2-[2-amino-3-(indol-3-yl)propionylamino]-2- methylpropionic acid and uses thereof” (Galimedix Therapeutics Inc., priority 2019, dated 2024).
Peptide text beside a SMILES is read from it.

Assays:
Format in all cases: physicochemical
[1] = Transition of Form II to Form I / product stability as a function of temperature
Method: At a higher temperature (e.g., 40-50° C.) significant degradation of the product is observed. Further, the isolated yield (45%-50% instead of 60%) and the efficiency of the purification are slightly lower (98.9 area %) at −5° C. than at 0-5° C. […] During the filtration step, the thick suspension could be warmed up and partly dissolves Form II of the compound and decreases the yield.
The complete transition from GAL-101 Form II to GAL-101 Form I is detected at room temperature (20-25° C.) within 15 minutes. The transition can start at above 10° C. The transition can be followed by microscope, the large metastable crystals transform to small crystals within a few minutes at ambient temperature (FIGS. 6-14).

[2] = Solubility test in water (visual check); settings: for solubility in water (in words): visual check
Method: To a three necked 1 L flask equipped with stirrer and thermometer, 60.0 g (207.4 mmol) of (R)-2-[2-amino-3-(indol-3-yl)propionylamino]-2-methylpropionic acid, which is as synthesized by methods as described herein, e.g., at Examples 6 and 11, or by the method as previously described in U.S. Patent Application Publication No. 2006/0234947, was added to a mixture of 167.0 mL of water and 21.0 mL of concentrated hydrochloric acid, resulting in the formation of a yellowish brown solution. The pH of the solution was set to 5.6 with 53.0 mL of a 20% NaOH solution at 0-5° C. About 30 minutes later, the crystallization started at 0-5° C. The suspension was stirred overnight at 0-5° C. The suspension was filtered on a pre-chilled funnel. As an in-process control, the solubility of a part of the filter cake in water was checked. […] Form II of (R)-2-[2-Amino-3-(indol-3-yl)propionylamino]-2-methylpropionic acid was isolated and dried at 0-5° C. over P2O5.
To a three necked 6 L flask equipped with overhead stirrer, thermometer, and pH meter, 1189.0 g of wet […] from Step 1 was dissolved in a mixture of 1715.0 mL of water and 250.0 mL of concentrated HCl. The mixture was stirred at 5-10° C. and the pH of the solution was adjusted to 5.6 with 665.0 mL of a 20% NaOH solution maintaining the temperature at 5-10° C. After 30 minutes of stirring, the crystallization began. The resulting suspension was stirred at 0-5° C. overnight. The precipitate was collected by filtration. This collected Form II was suspended in 1.2 L of water and heated to 30-35° C. for two hours. At the beginning, the solid partly dissolved, then precipitated again. […] The suspension was cooled to room temperature (20-25° C.), filtered and washed with 400 mL and 800 mL of water, subsequently then dried at 60-65° C. to constant weight.

[3] = Transition of Form II to Form I followed by X-ray powder diffraction
Method: X-ray powder diffraction (XRPD) patterns were obtained in a Philips model PW 3710 based PW 1050 Bragg-Brentano parafocusing goniometer using CuKa radiation (l=0.15418 nm), graphite monochromator and proportional counter. The XRD scans were digitally recorded in the […] of 3-35deg with a step size of 0.04deg.
Form II was measured at 20-25° C. (long dashed line), then heated at 30-35 for 15 minutes (solid line), then another 60 minutes (dotted line) (FIG. 2). Form I was also measured (short dashed line). According to the measurements, Form II is highly crystalline and strongly oriented (it forms large plates).
The transition of Form II (dark grey line) to Form I (black line) was complete at 50-60° C. within 30 minutes (FIG. 3). The reference diffractogram of Form I is shown in grey.

[4] = Microscopy study of the transition of Form II to Form I; settings: 30-35° C., polarized light microscope
Method: Transition of wet Form II to Form I was observed through a MOTIC BA300 microscope (as shown in FIGS. 6-10) under polarized light. The transition from wet Form II to Form I proceeded rapidly. The large Form II crystals transformed to small crystals at 30-35° C. within 2 minutes. The crystals of Form II are large plates. The observed crystal form explains the observed thixotropic property of the suspension of Form II. Form I consists of uniform rounded crystals.

Structure (SMILES)	temperature above which the transition Form II to Form I can start [1]	speed of transformation to Form I (in words) ([1]; above 30° C.)	time to complete transition from Form II to Form I ([1]; room temperature (20-25° C.))	water needed to dissolve (water solubility) ([2]; room temperature)	solubility in water (in words) [2]	solubility in water (in words) ([2]; listed as form II)	time to complete transition of Form II to Form I (XRPD) ([3]; 50-60° C.)	conversion of Form II to Form I in dry state (XRPD) ([3]; dry state, 30-35° C.)	time for large Form II crystals to transform to small crystals (wet Form II to Form I) [4]	solubility in water (in words) ([2]; listed as Form I)
CC(C)(NC(=O)[C@H](N)Cc1c[nH]c2ccccc12)C(=O)O [GAL-101 Form II, (R)-2-[2-amino-3-(indol-3-yl)propionylamino]-2-methylpropionic acid] (HELM PEPTIDE1{[dW].[Aib]}$$$$V2.0)	above 10 °C	very rapidly	≤ 15 min	about 4 volumes of water	high water solubility	Immediately dissolving	≤ 30 min	converts gradually to Form I	≤ 2 min	–
CC(C)(NC(=O)[C@H](N)Cc1c[nH]c2ccccc12)C(=O)O [GAL-101 Form I, (R)-2-[2-amino-3-(indol-3-yl)propionylamino]-2-methylpropionic acid] (HELM PEPTIDE1{[dW].[Aib]}$$$$V2.0)	–	–	–	–	–	–	–	–	–	almost insoluble in water
